Data: patent US4427698A, “Use of N,N-dimethyl-N'-p-tolyl-N'-dichlorofluoromethylthio-sulphamide for combating fungi which damage wood” (Bayer Aktiengesellschaft, priority 1978, dated 1984)
≈ marks a conversion by molar mass, not a printed value.

Columns and labels:
[1] = Peroral toxicity, single administration by probang to male rats; conditions: rat, in vivo, po, dissolved in acetone, Probit analysis, read-out: LD50 perorally
Procedure: The LD50 was calculated by means of Probit analysis (Fink et al, Methods of information in medicin 5, 19, 1966).

[2] = Solubilities in % by weight; assay type: physicochemical
From the text: Solubilities in % by weight of N,N-dimethyl-N'-p-tolyl-N'-dichlorofluoromethylthio-sulphamide (A) compared with N,N-dimethyl-N'-phenyl-N'-dichlorofluoromethylthio-sulphamide (B) and N-dichlorofluoromethylthio-phthalimide (C).

[3] = cumulative and percutaneous toxic action; assay type: in vivo; conditions: in contrast to known active compounds, for example pentachlorophenol
Coriolus versicolor = assay: activity against wood-damaging fungi; assay type: cell-based
Ceratocystis piceae = assay: activity against wood-damaging fungi; assay type: cell-based
male rats [4] = assay: Cutaneous treatment of male rats; assay type: in vivo, rat; conditions: cutaneous treatment
[5] = Cutaneous treatment of male rats; assay type: in vivo, rat; conditions: rat, in vivo, topical or ocular, read-out: LD50 cutaneously
Ceratocystis pini = assay: MIC determination in agar (beer wort and peptone); assay type: cell-based
Procedure: (§1) Determination of the minimum inhibitory concentration (MIC)
(§2) The active compound according to the invention is added, in concentrations of 2 mg/l to 5,000 mg/l, to an agar which is prepared from beer wort and peptone. After storing for 2 weeks at 28° C. and 60-70% relative atmospheric humidity the MIC is determined.

[6] = test system: Ceratocystis coerulenceus; assay: MIC determination in agar (beer wort and peptone); assay type: cell-based
Procedure: as §1, §2

Coniophora cerebella = assay: MIC determination in agar (beer wort and peptone); assay type: cell-based
Procedure: as §1, §2

Poria Vaporaria = assay: MIC determination in agar (beer wort and peptone); assay type: cell-based
Procedure: as §1, §2

Chaetomium globosum = assay: MIC determination in agar (beer wort and peptone); assay type: cell-based
Procedure: as §1, §2

Lentinus tigrinus = assay: MIC determination in agar (beer wort and peptone); assay type: cell-based
Procedure: as §1, §2

male rats [7] = conditions: comparison substance pentachlorophenol; cited from earlier work
rats = conditions: Caines, Toxycology and Applied Pharmacology 14, 515 (1969); cited from earlier work
[8] = Benzine fraction, boiling point 140-190° C.
[9] = Mixture of aromatic hydrocarbons, boiling point 159-175° C.
[10] = 336 h, 2 weeks at 28° C., 60-70% relative humidity

**Q.** Which results are given for Cc1ccc(N(SC(F)(Cl)Cl)S(=O)(=O)N(C)C)cc1 [A, N,N-dimethyl-N'-p-tolyl-N'-dichlorofluoromethylthio-sulphamide]?
**A.** LD50 [1]: > 2500 mg/kg; Solubility [2, 8]: 2.5 % by weight; Solubility ([2]; Ethyl acetate): 33 % by weight; Solubility ([2]; Methanol): 5 % by weight; Solubility [2, 9]: 20 % by weight; Solubility ([2]; Xylene): 29 % by weight; solubility (in words) ([2]; organic solvents): very readily soluble; cumulative or percutaneous toxic action (in words) [3]: neither a cumulative nor a percutaneous toxic action; active against wood-damaging fungi (Coriolus versicolor): active; active against wood-damaging fungi (Ceratocystis piceae): active; percutaneous toxicity compared with the other sulphamide (in words) (male rats [4]): just as low a toxicity; LD50 [5]: > 500 mg/kg; active against wood-damaging fungi (Ceratocystis pini): active; MIC (Ceratocystis pini; [10]): 20 µg/mL (≈ 57.6 µM); active against wood-damaging fungi [6]: active; MIC [6, 10]: 20 µg/mL (≈ 57.6 µM); active against wood-damaging fungi (Coniophora cerebella): active; MIC (Coniophora cerebella; [10]): 10 µg/mL (≈ 28.8 µM); MIC (Poria Vaporaria; 336 h, Poria Vaporaria, 2 weeks at 28° C., 60-70% relative humidity): 2 µg/mL (≈ 5.76 µM); active against wood-damaging fungi (Poria Vaporaria; Poria vaporaria): active; active against wood-damaging fungi (Chaetomium globosum): active; MIC (Chaetomium globosum; [10]): 10 µg/mL (≈ 28.8 µM); active against wood-damaging fungi (Lentinus tigrinus): active; MIC (Lentinus tigrinus; [10]): 5 µg/mL (≈ 14.4 µM)

**Q.** For CN(C)S(=O)(=O)N(SC(F)(Cl)Cl)c1ccccc1 [B, N,N-dimethyl-N'-phenyl-N'-dichlorofluoromethylthio-sulphamide], which Solubility [2, 8] is on record?
**A.** 1.2 % by weight

**Q.** What about the Solubility ([2]; Ethyl acetate) of the same molecule?
**A.** 11 % by weight

**Q.** And the Solubility ([2]; Methanol)?
**A.** 1.5 % by weight

**Q.** What about the Solubility [2, 9] of the same molecule?
**A.** 7.5 % by weight

**Q.** What about the Solubility ([2]; Xylene) of the same molecule?
**A.** 6.5 % by weight

**Q.** And the “solubility (in words)” value ([2]; formulating agents customary for wood protection agents)?
**A.** very poor solubility

**Q.** Which results are given for Oc1c(Cl)c(Cl)c(Cl)c(Cl)c1Cl [Pentachlorophenol]?
**A.** LD50 cutaneously (male rats [7]): 325 mg/kg; percutaneous toxic action (in words) (male rats [7]): has a toxic action; LD50 perorally (rats): 160 mg/kg of body weight
